The target of the assay is HT-29 cell line (Homo sapiens). Description: In vitro antiproliferative activity of compound against HT-29 (human colon caner ) cell line was determined by SRB assay.

As a reminder, the IC50 is the midpoint of a concentration-inhibition curve.

Take `O=Cc1cccc(C(=O)Sc2ccc(Cl)c(Cl)c2)n1` [6-Formyl-pyridine-2-carbothioic acid S-(3,4-dichloro-phenyl) ester]: the 50% inhibitory concentration (IC50) was determined as 33.1 µM.
The same measure for `N#Cc1ccc(C=O)nc1SCc1c(Cl)cccc1Cl` [2-(2,6-Dichloro-benzylsulfanyl)-6-formyl-nicotinonitrile]: 113 µM.

The values are drawn from BindingDB's records for doi:10.1016/s0960-894x(02)01041-7 (Seoul National University, 2003).
